Among the data in patent EP1100483B1, “GLUCOCORTICOID-SELECTIVE ANTI-INFLAMMATORY AGENTS” (Abbott Laboratories, priority 1998, dated 2000) are Ki values, retold here.

SMILES strings stand for the structures.

This test addresses T1, human androgen receptor (AR) (Homo sapiens, UniProt P10275).
T1 construct: The full length human androgen receptor (AR) was derived from cDNA expressed in a baculovirus expression system; purchased Ligand Pharmaceuticals (San Diego, CA); host or cells: SF21 insect cells (baculovirus)
T1 sequence (P10275 1-920): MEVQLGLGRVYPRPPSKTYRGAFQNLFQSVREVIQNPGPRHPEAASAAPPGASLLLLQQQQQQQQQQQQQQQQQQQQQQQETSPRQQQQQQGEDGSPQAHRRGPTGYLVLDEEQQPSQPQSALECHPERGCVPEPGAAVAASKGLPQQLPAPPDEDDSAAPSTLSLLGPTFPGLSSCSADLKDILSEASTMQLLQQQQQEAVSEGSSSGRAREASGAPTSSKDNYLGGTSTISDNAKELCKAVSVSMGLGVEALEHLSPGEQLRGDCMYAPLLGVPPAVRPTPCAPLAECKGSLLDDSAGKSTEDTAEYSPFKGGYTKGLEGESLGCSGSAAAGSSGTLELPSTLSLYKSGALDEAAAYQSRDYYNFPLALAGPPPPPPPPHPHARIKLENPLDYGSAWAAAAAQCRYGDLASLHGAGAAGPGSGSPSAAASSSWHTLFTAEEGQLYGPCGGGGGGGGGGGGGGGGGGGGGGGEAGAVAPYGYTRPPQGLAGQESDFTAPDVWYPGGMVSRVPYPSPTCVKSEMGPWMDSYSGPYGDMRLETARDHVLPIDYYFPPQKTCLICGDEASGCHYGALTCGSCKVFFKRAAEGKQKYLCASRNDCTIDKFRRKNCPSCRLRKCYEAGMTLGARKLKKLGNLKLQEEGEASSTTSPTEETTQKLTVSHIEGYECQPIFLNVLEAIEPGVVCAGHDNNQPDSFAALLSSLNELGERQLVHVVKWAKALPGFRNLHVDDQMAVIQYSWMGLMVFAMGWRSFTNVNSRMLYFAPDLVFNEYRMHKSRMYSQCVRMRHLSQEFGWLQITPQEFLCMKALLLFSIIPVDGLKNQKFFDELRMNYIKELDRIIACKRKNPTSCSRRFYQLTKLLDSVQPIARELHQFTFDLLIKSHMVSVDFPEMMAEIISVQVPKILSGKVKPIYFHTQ
The experiment in a line: human androgen receptor (AR) cytosol binding assay, [3H]-dihydrotestosterone competition. The settings on record: 1-2 nM [3H]-DHT, 4 °C for 18 hours; Cheng-Prusoff. An excerpt: For human androgen receptor (AR) cytosol binding assays, [^3H]-dihydrotestosterone (DHT) (120-140 Ci/mmol) was purchased from Amersham Life Science (Arlington Heights, IL), DHT was purchased from Sigma Chemical Co. (St. Louis, MO), CHAPS and DTT were purchased from Boehringer Mannheim GmbH (W. Germany), and all other reagents were purchased from Sigma. The full length human androgen receptor (AR) was derived from cDNA expressed in a baculovirus expression system from Ligand Pharmaceuticals (San Diego, CA). The methods concerning growth, purification, and assays of recombinant viruses followed the protocol outlined by Summers, M.D., Smith, G.E., A Manual of Methods for Baculovirus Vectors and Insect Cell Culture Procedures, Tex. Agric. Exp. Stn. [Bull], 1987, No. 155, hereby incorporated by reference. The recombinant plasmids were cotransfected into SF21 cells with wild type AcNPV DNA, and the recombinant viruses were plaque purified.
A receptor extract was prepared from the baculovirus system , and aliquots were stored at -80 °C until used. Typical protein concentrations for these extracts were between 10 and 20 mg/ml. Stock solutions of DHT or other competing compounds were prepared as 5 mM stock solutions in either 100% ethanol or DMSO and serial dilutions were carried out in 1:1 DMSO-ethanol. The assay buffer consisted of the following: 25 mM sodium phosphate, 10 mM potassium fluoride, 10 mM sodium molybdate, 10% glycerol, 1.5 mM EDTA, 2 mM DTT, 2 mM CHAPS and 1 mM PMSF, pH=7.4 at room temperature.
Receptor assays were performed with a final volume of 250 µL containing from 50-75 µg of extract protein, plus 1-2 nM [^3H]-DHT and varying concentrations of competing ligand (0-10-5 M). Assays were set up using a 96-well minitube system and incubations were carried out at 4 °C for 18 hours. Equilibrium under these conditions of buffer and temperature was achieved by 6-8 hours. Nonspecific binding was defined as that binding remaining in the presence of 1000 nM unlabeled DHT. At the end of the incubation period, 200 µL of 6.25% hydroxyapatite was added in wash buffer (binding buffer in the absence of DTT and PMSF). Specific ligand binding to receptor was determined by a hydroxyapatite-binding assay according to the protocol outlined by Wecksler, W.R., Norman, A.W., An Hydroxylapatite Batch Assay for the Quantitation of 1α, 25-Dihydroxyvitamin D3-Receptor Complexes, Anal. Biochem. 1979, 92, 314-323, hereby incorporated by reference. Hydroxyapatite absorbs the receptor-ligand complex, allowing for the separation of bound from free radiolabeled ligand. The mixture was vortexed, incubated for 10 minutes at 4 °C, centrifuged, and the supernatant was removed. The hydroxyapatite pellet was washed twice more with the wash buffer. The amount of receptor-ligand complex was determined by liquid scintillation counting of the hydroxyapatite pellet after the addition of […] EcoScint A scintillation cocktail from National Diagnostics (Atlanta, GA.).
After correcting for nonspecific binding, IC50 values were determined. […] The IC50 values were determined graphically from a log-logit plot of the data. […] Standards are included in each assay and resulting Ki values are determined by use of a modified Cheng-Prusoff equation and used to calculate Ki values for "unknown analogs" outlined by DeBlasi, A., O'Reilly, K., Motulsky, H.J., Calculating Receptor Number from Binding Experiments Using Same Compound As Radioligand and Competitor, TIPS 1989, 10, 227-229, hereby incorporated by reference.
A word on the Ki: it is the equilibrium dissociation constant of an inhibitor or competing ligand from its target. On to `CN(C)c1ccc(C(c2ccc(N(C)C)cc2)c2cc([N+](=O)[O-])ccc2Cl)cc1` [Example 1, 4',4" bis(dimethylamino)-2-chloro-5-nitrotriphenylmethane], for which the affinity, expressed as Ki, was 3730 nM.

With `CNc1ccc(C(c2ccc(NC)cc2)c2cc([N+](=O)[O-])ccc2Cl)cc1` [Example 23, 4',4" bis(methylamino)-2-chloro-5-nitrotriphenylmethane], the affinity corresponds to a Ki of 4260 nM. The Ki values of the last two molecules are within 1.5-fold of each other. With `CN(C)c1ccc(C(c2ccc(N(C)C)cc2)c2cc(Cl)ccc2Cl)cc1` [Example 24, 4',4" bis(dimethylamino)-2,5-dichlorotriphenylmethane], the Ki amounted to 3730 nM. In turn, `CNc1ccc(C(c2ccc(NC)cc2)c2cc(Cl)ccc2Cl)cc1` [Example 27, 4',4" bis(methylamino)-2,5-dichlorotriphenylmethane] returned a Ki of 3240 nM. The same measure for `CC(=O)OCCN(C)c1ccc(C(c2ccc(N(C)CCOC(C)=O)cc2)c2cc([N+](=O)[O-])ccc2Cl)cc1` [Example 31, 4',4" bis(N-(2-acetoxyethyl) N-methylamino)-2-chloro-5-nitrotriphenylmethane]: 3520 nM. Take `CN(CCO)c1ccc(C(c2ccc(N(C)CCO)cc2)c2cc([N+](=O)[O-])ccc2Cl)cc1` [Example 32, 4',4" bis(N-(2-hydroxyethyl) N-methylamino)-2-chloro-5-nitrotriphenylmethane]: the Ki turned out to be 3520 nM. As for `O=[N+]([O-])c1ccc(Cl)c(C(c2ccc(NCc3ccccc3)cc2)c2ccc(NCc3ccccc3)cc2)c1` [Example 36, 4',4" bis(N-benzylamino)-2-chloro-5-nitrotriphenylmethane], the affinity, expressed as Ki, was 3730 nM. To `CNc1ccc(C(c2ccc(N(C)C)cc2)c2cc([N+](=O)[O-])ccc2Cl)cc1` (stereo not shown) [Example 39, 4'-dimethylamino-4"-methylamino-2-chloro-5-nitrotriphenylmethane] belongs 3730 nM; to `CN(C)c1ccc(C(c2ccc(N(C)CCO)cc2)c2cc([N+](=O)[O-])ccc2Cl)cc1` (stereo not shown) [Example 42, 4'-dimethylamino-4"-(N-methyl-N-(2-hydroxyethyl)amino)-2-chloro-5-nitrotriphenylmethane], 2800 nM. The same measure for `CNc1ccc(C(c2ccc(N(C)CCOC(C)=O)cc2)c2cc([N+](=O)[O-])ccc2Cl)cc1` (stereo not shown) [Example 49, 4'-methylamino-4"-(N-(2-acetoxyethyl)-N-methylamino)-2-chloro-5-nitrotriphenylmethane]: 1040 nM. The molecule `CC(=O)OCCN(C)c1ccc(C(c2ccc(N(C)C)cc2)c2cc([N+](=O)[O-])ccc2Cl)cc1` (stereo not shown) [Example 51, 4'-dimethylamino-4"-(N-methyl-N-(2-acetoxyethyl)amino)-2-chloro-5-nitrotriphenylmethane] came in with a Ki of over 10000 nM. To `CN(C)c1ccc(C(Oc2ccccc2)c2cc([N+](=O)[O-])ccc2Cl)cc1` (stereo not shown) [Example 52, phenyl-[(4'-dimethylaminophenyl)-(2-chloro-5-nitrophenyl)methyl] ether] belongs over 10000 nM.

`CN(C)c1ccc(C(Sc2ccccc2)c2cc([N+](=O)[O-])ccc2Cl)cc1` (stereo not shown) [Example 54, phenyl-[(4'-dimethylaminophenyl)-(2-chloro-5-nitrophenyl)methyl]thioether] returned an inhibitory constant (Ki) of 3730 nM.
